target: T1, CDK1/Cyclin B (Homo sapiens, UniProt P06493); experiment: Enzymatic assay for CDK1 (FRET based LANCE Ultra kinase assay); type: biochemical; conditions: read-out: CDK1 enzymatic activity (IC50 range)
T1 construct: purchased Invitrogen PR4768C
Method: (§1) Enzymatic Binding Assay Protocol for CDK1, CDK2, CDK5 and CDK7
(§2) Inhibition activity of the respective compound on CDK kinase under Km value of ATP was tested in FRET based The LANCE® Ultra kinase assay (Perkin Elmer), which uses a ULight™-labeled peptide substrate and an appropriate Europium-labeled anti-phospho-antibody. Test compounds were made with DMSO solutions, and then 4-fold serial dilutions for 8 doses were prepared using automated liquid handler (POD810, LABCYTE) and 80 nL/well of diluted compound solutions were added into the 384-well plates (Greiner, Cat #784075). And then 68 nM of ULight-MBP peptide (Perkin Elmer, Cat #TRF0109-M) and 5 ul/well of ATP (Sigma, Cat #A7699) were added to the plate. After 1 min centrifugation at 1000 rpm, Purified CDKs/Cyclin complex were added following concentrations respectively. 24 uM for CDK1/Cyclin B (Invitrogen, Cat #PR4768C), 22 uM for CDK2/Cyclin A (Invitrogen, Cat #PV6290), 10 uM for CDK5/p25 (Invitrogen, Cat #PR8543B) and […] for CDK7/Cyclin H/MNAT1 (Invitrogen, Cat #PR6749B) were added to the each corresponding plate for CDK1, CDK2, CDK5 and CDK7. Incubate at 23° C. for 60 min and then Eu-labeled anti-phospho-Myelin Basic Protein (PE, Cat #TRF0201-M) and EDTA (Invitrogen, Cat #15575038) mixture in Lance Detection Buffer (Perkin Elmer, Cat #CR97100) was added in each well. After additional incubation at 23° C. for 60 min, test articles were measured the fluorescence using Envision leader (Perkin Elmer, USA) [Laser as excitation light; […] as the first and the second emission filter]. Data was analyzed using XL Fit software.

T1 sequence (P06493 whole entry): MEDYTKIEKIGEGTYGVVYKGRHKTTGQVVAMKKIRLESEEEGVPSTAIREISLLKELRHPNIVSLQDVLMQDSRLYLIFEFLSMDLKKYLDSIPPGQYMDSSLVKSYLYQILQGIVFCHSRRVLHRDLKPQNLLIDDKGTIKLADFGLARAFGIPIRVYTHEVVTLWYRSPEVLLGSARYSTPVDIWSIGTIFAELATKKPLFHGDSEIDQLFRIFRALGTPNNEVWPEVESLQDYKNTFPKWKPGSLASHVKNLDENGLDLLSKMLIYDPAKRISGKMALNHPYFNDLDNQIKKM
T1 sequence (P14635 whole entry partner): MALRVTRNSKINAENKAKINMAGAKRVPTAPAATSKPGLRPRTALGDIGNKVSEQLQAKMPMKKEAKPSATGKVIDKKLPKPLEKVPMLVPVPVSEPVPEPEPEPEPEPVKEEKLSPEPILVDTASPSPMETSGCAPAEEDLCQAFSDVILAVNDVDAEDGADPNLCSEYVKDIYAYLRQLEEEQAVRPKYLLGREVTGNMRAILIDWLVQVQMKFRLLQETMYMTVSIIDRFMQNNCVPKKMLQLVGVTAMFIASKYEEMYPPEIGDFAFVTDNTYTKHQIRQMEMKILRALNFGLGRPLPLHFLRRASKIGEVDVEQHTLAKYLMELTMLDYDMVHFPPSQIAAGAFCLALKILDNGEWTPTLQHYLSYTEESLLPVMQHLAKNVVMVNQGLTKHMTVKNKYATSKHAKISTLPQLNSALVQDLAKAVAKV

SMILES	IC50 [nM]
N#Cc1cnn2c(NCc3ccccc3-n3cccn3)nc(N3CCC(N)CC3)nc12 [Compound 34]	> 1000
Cc1ccc(CNc2nc(N3CCC(N)CC3)nc3c(C(C)C)cnn23)cc1-n1cccn1 [Compound 65]	> 1000
CC(C)c1cnn2c(NCc3ccc(Cl)c(-n4cccn4)c3)nc(N3CCC(N)CC3)nc12 [Compound 67]	> 1000
CC(C)c1cnn2c(NCc3ccccc3-n3cccn3)nc(-c3ccc(C4CCNCC4)cc3)nc12 [Compound 168]	> 1000

Next, values leading:

IC50 [nM]	SMILES
100 to 1000	Cc1nc2c(CNc3nc(N4CCC(N)CC4)nc4c(C(C)C)cnn34)cccc2o1 [Compound 33]
100 to 1000	CC(C)c1cnn2c(NCc3ccccc3-c3cc4cccc(NC(=O)N(C)C)c4[nH]3)nc(N3CCC(N)CC3)nc12 [Compound 149]

target: T2, CDK7/Cyclin H/MNAT1 (Homo sapiens, UniProt P50613); experiment: Enzymatic assay for CDK7 (FRET based LANCE Ultra kinase assay); type: biochemical; conditions: CDK7 over CDK1
T2 construct: purchased Invitrogen PR6749B
Method: as §1
Inhibition activity of the respective compound on CDK kinase under Km value of ATP was tested in FRET based The LANCE® Ultra kinase assay (Perkin Elmer), which uses a ULight™-labeled peptide substrate and an appropriate Europium-labeled anti-phospho-antibody. […] After 1 min centrifugation at 1000 rpm, Purified CDKs/Cyclin complex were added following concentrations respectively. […] Data was analyzed using XL Fit software.

T2 sequence (P50613 whole entry): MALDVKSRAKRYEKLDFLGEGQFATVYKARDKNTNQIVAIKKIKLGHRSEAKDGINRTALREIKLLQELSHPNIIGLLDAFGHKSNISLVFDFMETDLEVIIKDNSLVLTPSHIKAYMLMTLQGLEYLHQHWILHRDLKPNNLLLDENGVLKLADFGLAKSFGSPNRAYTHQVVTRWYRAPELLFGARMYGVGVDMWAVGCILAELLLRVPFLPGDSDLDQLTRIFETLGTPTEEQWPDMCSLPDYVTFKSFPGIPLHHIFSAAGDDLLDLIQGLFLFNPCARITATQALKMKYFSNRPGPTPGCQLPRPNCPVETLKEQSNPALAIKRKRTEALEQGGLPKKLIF
T2 sequence (P51946 whole entry partner): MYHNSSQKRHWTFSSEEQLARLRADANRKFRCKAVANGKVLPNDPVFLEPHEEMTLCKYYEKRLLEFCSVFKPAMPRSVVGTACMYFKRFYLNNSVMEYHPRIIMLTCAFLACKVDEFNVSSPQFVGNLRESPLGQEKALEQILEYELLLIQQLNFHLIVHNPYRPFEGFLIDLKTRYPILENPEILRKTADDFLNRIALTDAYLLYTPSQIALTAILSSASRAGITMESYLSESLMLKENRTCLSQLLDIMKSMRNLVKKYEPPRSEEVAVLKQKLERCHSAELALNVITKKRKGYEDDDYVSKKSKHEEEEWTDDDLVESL
T2 sequence (P51948 whole entry partner): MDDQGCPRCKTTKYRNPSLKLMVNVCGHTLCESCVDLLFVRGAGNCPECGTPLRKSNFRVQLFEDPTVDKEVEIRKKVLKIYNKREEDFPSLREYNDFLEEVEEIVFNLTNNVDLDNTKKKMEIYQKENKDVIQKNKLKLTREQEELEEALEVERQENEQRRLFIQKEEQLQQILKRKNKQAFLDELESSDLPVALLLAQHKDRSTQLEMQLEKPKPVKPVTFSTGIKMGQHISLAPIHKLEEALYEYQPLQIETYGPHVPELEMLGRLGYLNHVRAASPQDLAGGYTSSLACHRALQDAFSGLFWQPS

SMILES	CDK1/CDK7: Selectivity of CDK7 inhibition over CDK1 inhibition
Cc1nc2c(CNc3nc(N4CCC(N)CC4)nc4c(C(C)C)cnn34)cccc2o1 [Compound 33]	B (B=less than 200 fold, but greater than 20 fold)
N#Cc1cnn2c(NCc3ccccc3-n3cccn3)nc(N3CCC(N)CC3)nc12 [Compound 34]	B (B=less than 200 fold, but greater than 20 fold)
Cc1ccc(CNc2nc(N3CCC(N)CC3)nc3c(C(C)C)cnn23)cc1-n1cccn1 [Compound 65]	B (B=less than 200 fold, but greater than 20 fold)
CC(C)c1cnn2c(NCc3ccc(Cl)c(-n4cccn4)c3)nc(N3CCC(N)CC3)nc12 [Compound 67]	B (B=less than 200 fold, but greater than 20 fold)
CC(C)c1cnn2c(NCc3ccccc3-c3cc4cccc(NC(=O)N(C)C)c4[nH]3)nc(N3CCC(N)CC3)nc12 [Compound 149]	B (B=less than 200 fold, but greater than 20 fold)
CC(C)c1cnn2c(NCc3ccccc3-n3cccn3)nc(-c3ccc(C4CCNCC4)cc3)nc12 [Compound 168]	A (A=greater than 200 fold)

same assay, conditions: CDK7 over CDK2

SMILES	CDK2/CDK7: Selectivity of CDK7 inhibition over CDK2 inhibition
Cc1nc2c(CNc3nc(N4CCC(N)CC4)nc4c(C(C)C)cnn34)cccc2o1 [Compound 33]	B (B=less than 200 fold, but greater than 20 fold)
N#Cc1cnn2c(NCc3ccccc3-n3cccn3)nc(N3CCC(N)CC3)nc12 [Compound 34]	C (C=less than 20 fold)
Cc1ccc(CNc2nc(N3CCC(N)CC3)nc3c(C(C)C)cnn23)cc1-n1cccn1 [Compound 65]	B (B=less than 200 fold, but greater than 20 fold)
CC(C)c1cnn2c(NCc3ccc(Cl)c(-n4cccn4)c3)nc(N3CCC(N)CC3)nc12 [Compound 67]	C (C=less than 20 fold)
CC(C)c1cnn2c(NCc3ccccc3-c3cc4cccc(NC(=O)N(C)C)c4[nH]3)nc(N3CCC(N)CC3)nc12 [Compound 149]	B (B=less than 200 fold, but greater than 20 fold)
CC(C)c1cnn2c(NCc3ccccc3-n3cccn3)nc(-c3ccc(C4CCNCC4)cc3)nc12 [Compound 168]	B (B=less than 200 fold, but greater than 20 fold)

same assay, conditions: CDK7 over CDK5

SMILES	CDK5/CDK7: Selectivity of CDK7 inhibition over CDK5 inhibition
N#Cc1cnn2c(NCc3ccccc3-n3cccn3)nc(N3CCC(N)CC3)nc12 [Compound 34]	C (C=less than 20 fold)
Cc1ccc(CNc2nc(N3CCC(N)CC3)nc3c(C(C)C)cnn23)cc1-n1cccn1 [Compound 65]	C (C=less than 20 fold)
CC(C)c1cnn2c(NCc3ccc(Cl)c(-n4cccn4)c3)nc(N3CCC(N)CC3)nc12 [Compound 67]	C (C=less than 20 fold)
CC(C)c1cnn2c(NCc3ccccc3-n3cccn3)nc(-c3ccc(C4CCNCC4)cc3)nc12 [Compound 168]	B (B=less than 200 fold, but greater than 20 fold)

Second part, the molecule after the results:

CDK5/CDK7: Selectivity of CDK7 inhibition over CDK5 inhibition	SMILES
C (C=less than 20 fold)	Cc1nc2c(CNc3nc(N4CCC(N)CC4)nc4c(C(C)C)cnn34)cccc2o1 [Compound 33]
C (C=less than 20 fold)	CC(C)c1cnn2c(NCc3ccccc3-c3cc4cccc(NC(=O)N(C)C)c4[nH]3)nc(N3CCC(N)CC3)nc12 [Compound 149]

same assay, conditions: read-out: CDK7 enzymatic activity (IC50 range)

SMILES	IC50 [nM]
N#Cc1cnn2c(NCc3ccccc3-n3cccn3)nc(N3CCC(N)CC3)nc12 [Compound 34]	< 100
Cc1ccc(CNc2nc(N3CCC(N)CC3)nc3c(C(C)C)cnn23)cc1-n1cccn1 [Compound 65]	< 100
CC(C)c1cnn2c(NCc3ccc(Cl)c(-n4cccn4)c3)nc(N3CCC(N)CC3)nc12 [Compound 67]	< 100
CC(C)c1cnn2c(NCc3ccccc3-n3cccn3)nc(-c3ccc(C4CCNCC4)cc3)nc12 [Compound 168]	< 100

More lines, now with the values ahead:

IC50 [nM]	SMILES
< 100	Cc1nc2c(CNc3nc(N4CCC(N)CC4)nc4c(C(C)C)cnn34)cccc2o1 [Compound 33]
< 100	CC(C)c1cnn2c(NCc3ccccc3-c3cc4cccc(NC(=O)N(C)C)c4[nH]3)nc(N3CCC(N)CC3)nc12 [Compound 149]

target: T3, CDK5/p25 (Homo sapiens, UniProt Q00535); experiment: Enzymatic assay for CDK5 (FRET based LANCE Ultra kinase assay); type: biochemical; conditions: read-out: CDK5 enzymatic activity (IC50 range)
T3 construct: purchased Invitrogen PR8543B
Method: as §1, §2

T3 sequence (Q00535 whole entry): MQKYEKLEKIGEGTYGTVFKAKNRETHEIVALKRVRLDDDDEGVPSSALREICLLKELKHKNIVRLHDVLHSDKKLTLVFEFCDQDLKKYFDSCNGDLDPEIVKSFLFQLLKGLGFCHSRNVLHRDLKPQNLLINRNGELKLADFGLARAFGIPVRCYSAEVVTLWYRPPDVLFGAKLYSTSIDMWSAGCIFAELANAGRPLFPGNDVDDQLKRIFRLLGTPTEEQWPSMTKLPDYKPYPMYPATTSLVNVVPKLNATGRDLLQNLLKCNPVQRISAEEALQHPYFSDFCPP
T3 sequence (Q15078 99-307 partner limits assumed): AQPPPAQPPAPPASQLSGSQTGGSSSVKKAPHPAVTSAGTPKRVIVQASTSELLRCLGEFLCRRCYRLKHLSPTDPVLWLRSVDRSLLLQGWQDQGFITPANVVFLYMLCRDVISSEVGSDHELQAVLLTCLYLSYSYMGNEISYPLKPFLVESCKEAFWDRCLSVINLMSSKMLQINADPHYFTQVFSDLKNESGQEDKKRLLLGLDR

SMILES	IC50 [nM]
N#Cc1cnn2c(NCc3ccccc3-n3cccn3)nc(N3CCC(N)CC3)nc12 [Compound 34]	100 to 1000
Cc1ccc(CNc2nc(N3CCC(N)CC3)nc3c(C(C)C)cnn23)cc1-n1cccn1 [Compound 65]	100 to 1000
CC(C)c1cnn2c(NCc3ccc(Cl)c(-n4cccn4)c3)nc(N3CCC(N)CC3)nc12 [Compound 67]	100 to 1000
CC(C)c1cnn2c(NCc3ccccc3-n3cccn3)nc(-c3ccc(C4CCNCC4)cc3)nc12 [Compound 168]	100 to 1000

The remaining lines, values ahead:

IC50 [nM]	SMILES
< 100	Cc1nc2c(CNc3nc(N4CCC(N)CC4)nc4c(C(C)C)cnn34)cccc2o1 [Compound 33]
< 100	CC(C)c1cnn2c(NCc3ccccc3-c3cc4cccc(NC(=O)N(C)C)c4[nH]3)nc(N3CCC(N)CC3)nc12 [Compound 149]

target: T4, CDK2/Cyclin A (Homo sapiens, UniProt P24941); experiment: Enzymatic assay for CDK2 (FRET based LANCE Ultra kinase assay); type: biochemical; conditions: read-out: CDK2 enzymatic activity (IC50 range)
T4 construct: purchased Invitrogen PV6290
Method: as §1, §2

SMILES	IC50 [nM]
N#Cc1cnn2c(NCc3ccccc3-n3cccn3)nc(N3CCC(N)CC3)nc12 [Compound 34]	100 to 1000
Cc1ccc(CNc2nc(N3CCC(N)CC3)nc3c(C(C)C)cnn23)cc1-n1cccn1 [Compound 65]	> 1000
CC(C)c1cnn2c(NCc3ccc(Cl)c(-n4cccn4)c3)nc(N3CCC(N)CC3)nc12 [Compound 67]	100 to 1000
CC(C)c1cnn2c(NCc3ccccc3-n3cccn3)nc(-c3ccc(C4CCNCC4)cc3)nc12 [Compound 168]	100 to 1000

Other lines, results leading:

IC50 [nM]	SMILES
100 to 1000	Cc1nc2c(CNc3nc(N4CCC(N)CC4)nc4c(C(C)C)cnn34)cccc2o1 [Compound 33]
< 100	CC(C)c1cnn2c(NCc3ccccc3-c3cc4cccc(NC(=O)N(C)C)c4[nH]3)nc(N3CCC(N)CC3)nc12 [Compound 149]

tested on: H460; experiment: Cellular H460 viability assay (CellTiter-Glo, 72 hours); type: cell-based; conditions: Homo sapiens, NCI-H460
Method: All cell lines were routinely tested for mycoplasma.
The effect of the CDK7 inhibitor to inhibit the growth of target cancer cells was evaluated through the 72 hours time period of viability assay. Briefly, the candidate cell line ware plated in 96 well plate at the following density of cells respectively. […] DMSO solvent without compound served as a control and final DMSO concentration less than 0.1%. After 72 hours of incubation at 37° C., 5% CO2 incubator, cells were analyzed for the viability using the CellTiter-Glo Luminescent Cell Viability Assay (Promega, Cat #G7570). All viability assays were performed in duplicate and Luminescence was read using an Envision (Perkin Elmer, USA). Data was analyzed using XLfit software.

SMILES	IC50 [nM]
CC(C)c1cnn2c(NCc3ccccc3Br)nc(N3CCC(N)CC3)nc12 [Compound 22]	< 1000
NC1CCN(c2nc(NCc3ccccc3-n3cccn3)n3ncc(Cl)c3n2)CC1 [Compound 29]	1000 to 10000
N#Cc1cnn2c(NCc3ccccc3-n3cccn3)nc(N3CCC(N)CC3)nc12 [Compound 34]	1000 to 10000
Cc1ccc(CNc2nc(N3CCC(N)CC3)nc3c(C(C)C)cnn23)cc1-n1cccn1 [Compound 65]	1000 to 10000
CC(C)c1cnn2c(NCc3ccc(Cl)c(-n4cccn4)c3)nc(N3CCC(N)CC3)nc12 [Compound 67]	1000 to 10000

Continued, values first:

IC50 [nM]	SMILES
> 10000	CC(C)c1cnn2c(NCc3ccccc3-n3cccn3)nc(C(=O)N3CCN(C)CC3)nc12 [Compound 7]
< 1000	CC(C)c1cnn2c(NCc3ccccc3-n3cccn3)nc(C3CCNCC3)nc12 [Compound 23]
< 1000	Cc1nc2c(CNc3nc(N4CCC(N)CC4)nc4c(C(C)C)cnn34)cccc2o1 [Compound 33]
< 1000	CC(C)c1cnn2c(NCc3ccccc3-c3cc4cccc(NC(=O)N(C)C)c4[nH]3)nc(N3CCC(N)CC3)nc12 [Compound 149]

— patent US11945822B2, “Pyrazolo-triazine and/or pyrazolo-pxrimidine derivatives as selective inhibitor of cyclin dependent kinase” (QURIENT CO., LTD., priority 2018, dated 2024)
